Ki data for 18 molecules are collected here from patent publication US11014911B2, “CDK2 inhibitors” (Pfizer Inc., priority 2019, dated 2021).

As usually defined, the Ki is the equilibrium dissociation constant of an inhibitor or competing ligand from its target.

One test concerns the target GSK3β (H350L) (Homo sapiens (Human), UniProt P49841). The conditions noted are these: read-out: GSK3β Ki.
Test [1] deals with CDK2/Cyclin E1 full length (Homo sapiens (Human), UniProt P24941). In words: CDK2/Cyclin E1 full length mobility shift assay. Format: biochemical.

GSK3β (H350L), sequence (P49841 whole entry, stated change not applied): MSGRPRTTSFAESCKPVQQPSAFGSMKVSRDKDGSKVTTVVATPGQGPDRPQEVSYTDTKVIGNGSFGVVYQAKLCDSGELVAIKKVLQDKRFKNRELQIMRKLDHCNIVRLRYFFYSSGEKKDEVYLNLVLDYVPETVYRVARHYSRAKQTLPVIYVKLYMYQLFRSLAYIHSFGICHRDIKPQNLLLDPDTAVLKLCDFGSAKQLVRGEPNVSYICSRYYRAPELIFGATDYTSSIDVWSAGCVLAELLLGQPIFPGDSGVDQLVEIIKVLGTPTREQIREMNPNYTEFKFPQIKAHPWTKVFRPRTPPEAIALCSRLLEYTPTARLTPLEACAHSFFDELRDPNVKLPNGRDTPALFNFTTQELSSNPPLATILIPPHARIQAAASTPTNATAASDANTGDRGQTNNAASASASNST
Procedure for GSK3β (H350L): The assay was initiated with the addition of ATP, following 15 minutes pre-incubation of enzyme and inhibitor at room temperature in the reaction mixture. The reaction was stopped after 30 minutes at room temperature by the addition of 50 μL of 80 mM EDTA.

As to `C[C@]1(O)CC[C@@H](NC(=O)O[C@@H]2CC[C@H](c3cc(NC(=O)Cc4cc(F)cc(F)c4)n[nH]3)C2)CC1` [Example 572, (1R,3S)-3-(3-{[(3,5-difluorophenyl)acetyl]amino}-1H-pyrazol-5-yl)cyclopentyl (cis-4-hydroxy-4-methylcyclohexyl)carbamate], the Ki on GSK3β (H350L) was 24.2 nM; in test [1], 0.37 nM.
In the case of `C[C@]1(O)CC[C@H](NC(=O)O[C@@H]2CC[C@H](c3cc(NC(=O)Cc4cc(F)cc(F)c4)n[nH]3)C2)CC1` [Example 573, (1R,3S)-3-(3-{[(3,5-difluorophenyl)acetyl]amino}-1H-pyrazol-5-yl)cyclopentyl (trans-4-hydroxy-4-methylcyclohexyl)carbamate], the Ki at GSK3β (H350L) came out at 14.1 nM; in test [1], 0.83 nM.
On to `C[C@H]1CCN1C(=O)O[C@@H]1CC[C@H](c2cc(NC(=O)c3cnnn3C)n[nH]2)C1` [Example 586, (1R,3S)-3-(3-{[(1-methyl-1H-1,2,3-triazol-5-yl)carbonyl]amino}-1H-pyrazol-5-yl)cyclopentyl (2S)-2-methylazetidine-1-carboxylate], for which the inhibition constant (Ki) was 51.5 nM at GSK3β (H350L) and 0.88 nM in test [1].
Turning to `COCCn1nccc1C(=O)Nc1cc([C@H]2CC[C@@H](OC(=O)N3CC[C@@H]3C)C2)[nH]n1` [Example 594, (1R,3S)-3-[3-({[1-(2-methoxyethyl)-1H-pyrazol-5-yl]carbonyl}amino)-1H-pyrazol-5-yl]cyclopentyl (2S)-2-methylazetidine-1-carboxylate], the values for the Ki (at GSK3β (H350L); in test [1]) were 14.3 nM and 0.62 nM, respectively.
For the molecule `Cc1cnc(CC(=O)Nc2cc([C@H]3CC[C@@H](OC(=O)N4CCC4(C)C)C3)[nH]n2)cn1` [Example 601, (1R,3S)-3-(3-{[(5-methylpyrazin-2-yl)acetyl]amino}-1H-pyrazol-5-yl)cyclopentyl 2,2-dimethylazetidine-1-carboxylate], the values for the inhibition constant Ki (at GSK3β (H350L); in test [1]) were 7.32 nM and 0.39 nM, respectively.
For `C[C@H]1C[C@H](C)N1C(=O)O[C@@H]1CC[C@H](c2cc(NC(=O)Cc3cnn(C)c3)n[nH]2)C1` [Example 605, (1R,3S)-3-(3-{[(1-methyl-1H-pyrazol-4-yl)acetyl]amino}-1H-pyrazol-5-yl)cyclopentyl (2S,4S)-2,4-dimethylazetidine-1-carboxylate], the inhibition constant Ki at GSK3β (H350L) was found to be 9.89 nM; in test [1], 0.32 nM.
With `Cc1cnc(CC(=O)Nc2cc([C@H]3CC[C@@H](OC(=O)N4[C@@H](C)C[C@@H]4C)C3)[nH]n2)o1` [Example 606, (1R,3S)-3-(3-{[(5-methyl-1,3-oxazol-2-yl)acetyl]amino}-1H-pyrazol-5-yl)cyclopentyl (2S,4S)-2,4-dimethylazetidine-1-carboxylate], the Ki worked out at 11.5 nM at GSK3β (H350L) and 0.63 nM in test [1].
Regarding `COc1cc(CC(=O)Nc2cc([C@@H]3CC[C@H](OC(=O)N4C[C@H](O)[C@H]4C)C3)[nH]n2)ccn1` [Example 611, (1S,3R)-3-(3-{[(2-methoxypyridin-4-yl)acetyl]amino}-1H-pyrazol-5-yl)cyclopentyl (2R,3S)-3-hydroxy-2-methylazetidine-1-carboxylate], the figures for the inhibitory constant (Ki) (on GSK3β (H350L); in test [1]) were 13.9 nM and 1.67 nM, respectively.
For `COc1cc(CC(=O)Nc2cc([C@H]3CC[C@@H](OC(=O)N4C[C@@H](O)[C@@H]4C)C3)[nH]n2)ccn1` [Example 612, (1R,3S)-3-(3-{[(2-methoxypyridin-4-yl)acetyl]amino}-1H-pyrazol-5-yl)cyclopentyl (2S,3R)-3-hydroxy-2-methylazetidine-1-carboxylate], the inhibition constant Ki on GSK3β (H350L) was determined as 8.01 nM; in test [1] it was 0.45 nM.
As for `COc1ccc(CC(=O)Nc2cc([C@@H]3CC[C@H](OC(=O)N4C[C@@H](O)[C@@H]4C)C3)[nH]n2)cn1` [Example 614, (1S,3R)-3-(3-{[(6-methoxypyridin-3-yl)acetyl]amino}-1H-pyrazol-5-yl)cyclopentyl (2S,3R)-3-hydroxy-2-methylazetidine-1-carboxylate], the values for the Ki (at GSK3β (H350L); in test [1]) were 6.58 nM and 1.66 nM, respectively.
Turning to `COc1ccc(CC(=O)Nc2cc([C@H]3CC[C@@H](OC(=O)N4C[C@H](O)[C@H]4C)C3)[nH]n2)cn1` [Example 616, (1R,3S)-3-(3-{[(6-methoxypyridin-3-yl)acetyl]amino}-1H-pyrazol-5-yl)cyclopentyl (2R,3S)-3-hydroxy-2-methylazetidine-1-carboxylate], the Ki at GSK3β (H350L) was 4.05 nM; in test [1], 0.28 nM.
For `C[C@H]1[C@H](O)CN1C(=O)O[C@@H]1CC[C@H](c2cc(NC(=O)Cc3cc(F)cc(F)c3)n[nH]2)C1` [Example 617, (1R,3S)-3-(3-{[(3,5-difluorophenyl)acetyl]amino}-1H-pyrazol-5-yl)cyclopentyl (2S,3R)-3-hydroxy-2-methylazetidine-1-carboxylate] the same measures were 7.18 nM and 0.27 nM.
In the same order, the values of `CO[C@@H]1CN(C(=O)O[C@@H]2CC[C@H](c3cc(NC(=O)Cc4cc(C)no4)n[nH]3)C2)[C@H]1C` [Example 618, (1R,3S)-3-(3-{[(3-methyl-1,2-oxazol-5-yl)acetyl]amino}-1H-pyrazol-5-yl)cyclopentyl (2S,3R)-3-methoxy-2-methylazetidine-1-carboxylate] are 8.57 nM and 0.78 nM.
For `COc1cc(CC(=O)Nc2cc([C@H]3CC[C@@H](OC(=O)N4C[C@@H](OC)[C@@H]4C)C3)[nH]n2)ccn1` [Example 619, (1R,3S)-3-(3-{[(2-methoxypyridin-4-yl)acetyl]amino}-1H-pyrazol-5-yl)cyclopentyl (2S,3R)-3-methoxy-2-methylazetidine-1-carboxylate] the same measures were 5.75 nM and 0.42 nM.
For `COc1ccc(CC(=O)Nc2cc([C@H]3CC[C@@H](OC(=O)N4C[C@@H](OC)[C@@H]4C)C3)[nH]n2)cn1` [Example 621, (1R,3S)-3-(3-{[(6-methoxypyridin-3-yl)acetyl]amino}-1H-pyrazol-5-yl)cyclopentyl (2S,3R)-3-methoxy-2-methylazetidine-1-carboxylate], the Ki at GSK3β (H350L) turned out to be 2.77 nM; in test [1], 0.36 nM.
As to `Cc1ncc(CC(=O)Nc2cc([C@H]3CC[C@@H](OC(=O)N4C[C@@](C)(O)[C@@H]4C)C3)[nH]n2)s1` [Example 623, (1R,3S)-3-(3-{[(2-methyl-1,3-thiazol-5-yl)acetyl]amino}-1H-pyrazol-5-yl)cyclopentyl (2S,3R)-3-hydroxy-2,3-dimethylazetidine-1-carboxylate], the Ki was determined as 6.31 nM at GSK3β (H350L) and 1.17 nM in test [1].
For `COc1cc(CC(=O)Nc2cc([C@@H]3CC[C@H](OC(=O)N4C[C@@](C)(O)[C@@H]4C)C3)[nH]n2)ccn1` [Example 624, (1S,3R)-3-(3-{[(2-methoxypyridin-4-yl)acetyl]amino}-1H-pyrazol-5-yl)cyclopentyl (2S,3R)-3-hydroxy-2,3-dimethylazetidine-1-carboxylate] the same measures were 16.3 nM and 4.18 nM.
In the case of `COc1cc(CC(=O)Nc2cc([C@H]3CC[C@@H](OC(=O)N4C[C@@](C)(O)[C@@H]4C)C3)[nH]n2)ccn1` [Example 625, (1R,3S)-3-(3-{[(2-methoxypyridin-4-yl)acetyl]amino}-1H-pyrazol-5-yl)cyclopentyl (2S,3R)-3-hydroxy-2,3-dimethylazetidine-1-carboxylate], the Ki turned out to be 4.97 nM on GSK3β (H350L) and 0.45 nM in test [1].
